Experimental data reported in patent publication US6238875A, “Diagnostic methods useful in the characterization of lymphoproliferative disease characterized by increased EPR-1” (The Scripps Research Institute, priority 1994, dated 2001).

Test system: T lymphocytes
Test: Intracellular Ca2+ signalling in single adherent T lymphocytes loaded with Indo-1 (real-time fluorescence)
Format: cell-based, human
Conditions: 7 μM ionomycin; Indo-1-loaded T cells; data not shown
Method: Early events of intracellular Ca^2+ signalling after EPR-1 occupancy were characterized in real-time fluorescence measurements at the single cell level (Altieri, et al., Biochem. J. 288: 465 (1992)). Freshly isolated T lymphocytes were attached onto Cell-Tak-(Biopolymers, Farmington, Conn.)-coated optical grade glass coverslips (22 mm^2 diameter and <[…] thickness), and loaded intracellularly with 1 μM of the Ca^2+ -sensitive fluorescent dye Indo-1/AM (Grynkiewicz, et al., J. Biol. Chem. 260: 3440 (1985)) (Calbiochem) in 145 mM NaCl, 5 mM KCl, 1 mM Na2 HPO4, 2.5 mM CaCl2, 10 mM glucose, 25 mM HEPES, 0.5 mM MgSO4 for 45 minutes at 37° C. Cells were gently washed in the same loading buffer, and analyzed in real time fluorescence measurements in digitalized imaging using the interactive laser cytometer ACAS 470, as described (Altieri, et al., Id. (1992)). […] After 125 seconds from the addition of the primary mAb, 50 μg/ml aliquots of goat anti-mouse F(ab')2 fragments were added as a cross-linking reagent, and fluorescence changes in the target cells were monitored continuously during a 3-minute interval. Changes in cytosolic free [Ca^2+ ]i under the various conditions tested are expressed as ratio of Detector 1 (free Indo-1, 485 nm wavelength)/Detector 2 (Indo-1:Ca^2+ complex, 405 nm wavelength).

C[C@H](CCC(=O)O)C[C@H](C)C[C@H](C)C(=O)/C=C(\O)[C@H](C)C[C@H](C)C/C=C/[C@@H](C)[C@@H](O)[C@@H](C)[C@@H](O)C[C@@H]1CC[C@@](C)([C@H]2CC[C@@](C)([C@@H](C)O)O2)O1 [ionomycin]
cytosolic free [Ca2+]i response: large and sustained increase
